In patent publication US20050063931A1, “Hair-follicle treatment,in particular against hair loss” (priority 2001, published 2005):

Assays:
hair follicle [1] = experiment: Extent of progress of the hair cycle (HCS) 16 days after epilation, FIG. 1; assay type: in vivo, mice; settings: group C, substance P, no stress
From the text: The extent of progress of the cycle in this case was an index of the rate at which the hair follicle progresses from the anagen to the catagen.
With reference to the histogram of FIG. 1, appended to the present description: • the first group of mice (A) underwent no treatment, • the second group (B) was subjected to sonic stress, • the third group (C) was subjected to treatment with substance P, • the fourth group (D) was subjected to treatment with an NK1-receptor antagonist substance, and • the fifth group (E) was subjected to combined stress and NK1-receptor antagonist substance treatment.

[2] = system: keratinocytes in the hair follicle; experiment: Proliferation of keratinocytes in the hair follicle, positive Ki67 cells (immunohistochemical); assay type: in vivo, mice of the strain CBA/J; settings: no stress + SP
Experimental: (§1) The tests were carried out in vivo on mice of the strain CBA/J which were pregnant since, as is known, there is a close correlation between exposure to stress and an increase in the percentage of abortions. In order to determine the effect of stress on hair growth, the following biological and immunological parameters were measured: • the number of cells in apoptosis in the hair follicle, • the proliferation of keratinocytes in the hair follicle, • the activity of some immunocytes, in particular, of macrophages, mast cells, and γδT cells. In accordance with a well-established model for the study of stress, some mice were subjected to predetermined doses of ultrasound (sonic stress) for 7 days, to ascertain its impact both on the activity of the hair follicle and on the immune response of the perifollicular region. Another group of mice was subjected to treatment with substance P (SP), and yet others to sonic stress treatment combined with the administration of a NK1-receptor antagonist substance (indicated SP-RA). Upon completion of the above-mentioned treatments, the parameters listed above were measured again and compared with those measured in mice which had not been subjected to any treatment. The proliferation of the keratinocytes was measured by an immunohistochemical technique by measurement of the positive Ki67 cells (column 5).

[3] = system: perifollicular macrophages; experiment: Macrophage presence by expression of Class II MHC glycoprotein; assay type: in vivo, mice of the strain CBA/J; settings: no stress + SP
Experimental: as §1, with “Macrophage presence was investigated by detection” for “The proliferation”, “expression” for “keratinocytes was measured by an immunohistochemical technique by measurement”, “Class II MHC glycoprotein” for “the positive Ki67 cells”, “6).” for “5).”

[4] = Abortions in pregnant mice (sonic stress model); assay type: in vivo, mice of the strain CBA/J; settings: no stress + SP, pregnant CBA/J mice
Experimental: The tests were carried out in vivo on mice of the strain CBA/J which were pregnant since, as is known, there is a close correlation between exposure to stress and an increase in the percentage of abortions. In accordance with a well-established model for the study of stress, some mice were subjected to predetermined doses of ultrasound (sonic stress) for 7 days, to ascertain its impact both on the activity of the hair follicle and on the immune response of the perifollicular region. Another group of mice was subjected to treatment with substance P (SP), and yet others to sonic stress treatment combined with the administration of a NK1-receptor antagonist substance (indicated SP-RA). Upon completion of the above-mentioned treatments, the parameters listed above were measured again and compared with those measured in mice which had not been subjected to any treatment.

γδT cells = experiment: γδT-cell presence (immunohistochemical); assay type: in vivo, mice of the strain CBA/J; settings: no stress + SP
Experimental: as §1, with “treatment. γδT-cell presence” for “treatment. The proliferation of the keratinocytes”, “was detected” for “was measured”, “technique” for “technique by measurement of the positive Ki67 cells”, “(column 8).” for “(column 5).”

hair follicle [5] = experiment: Cells in apoptosis in the hair follicle by TUNEL technique; assay type: in vivo, mice of the strain CBA/J; settings: no stress + SP
Experimental: The tests were carried out in vivo on mice of the strain CBA/J which were pregnant since, as is known, there is a close correlation between exposure to stress and an increase in the percentage of abortions. In order to determine the effect of stress on hair growth, the following biological and immunological parameters were measured: • the number of cells in apoptosis in the hair follicle, • the proliferation of keratinocytes in the hair follicle, • the activity of some immunocytes, in particular, of macrophages, mast cells, and γδT cells. In accordance with a well-established model for the study of stress, some mice were subjected to predetermined doses of ultrasound (sonic stress) for 7 days, to ascertain its impact both on the activity of the hair follicle and on the immune response of the perifollicular region. […] Upon completion of the above-mentioned treatments, the parameters listed above were measured again and compared with those measured in mice which had not been subjected to any treatment. The number of cells in apoptosis was measured by the TUNEL technique in a first region of the hair follicle comprising the infundibulum, the capsular germinal region, and the secondary germinal region (column 3), and in a second, more extensive region comprising, in addition to the first region, the epidermis and the parafollicular dermis (column 4).

mast cells = experiment: Mast-cell activity, degranulated mast cells; assay type: in vivo, mice of the strain CBA/J; settings: no stress + SP
Experimental: The tests were carried out in vivo on mice of the strain CBA/J which were pregnant since, as is known, there is a close correlation between exposure to stress and an increase in the percentage of abortions. In order to determine the effect of stress on hair growth, the following biological and immunological parameters were measured: • the number of cells in apoptosis in the hair follicle, • the proliferation of keratinocytes in the hair follicle, • the activity of some immunocytes, in particular, of macrophages, mast cells, and γδT cells. In accordance with a well-established model for the study of stress, some mice were subjected to predetermined doses of ultrasound (sonic stress) for 7 days, to ascertain its impact both on the activity of the hair follicle and on the immune response of the perifollicular region. Another group of mice was subjected to treatment with substance P (SP), and yet others to sonic stress treatment combined with the administration of a NK1-receptor antagonist substance (indicated SP-RA). Upon completion of the above-mentioned treatments, the parameters listed above were measured again and compared with those measured in mice which had not been subjected to any treatment. Mast-cell activity was measured by measuring the percentage of degranulated mast cells relative to the total mast cells present in the field of vision (column 7).

hair follicle [6] = settings: treatment during telogen stage; cited from earlier work

Substance P [SP]
Extent of progress of the cycle (HCS): premature catagen (hair follicle [1]): an effect also well simulated by substance P
Ki67+ cells (proliferation of keratinocytes) [2]: 7.7
MHC II (macrophage presence) [3]: 11.0
% Abortions [4]: 19%
γδ TCR+ (γδT-cell presence) (γδT cells): 1.3
TUNEL+ cells in apoptosis, first region of the hair follicle (infundibulum, capsular germinal region, secondary germinal region) (hair follicle [5]): 8.0
TUNEL+ cells in apoptosis, second more extensive region (first region plus epidermis and parafollicular dermis) (hair follicle [5]): 9.0
MC (percentage of degranulated mast cells relative to total mast cells in the field of vision) (mast cells): 7.9
Effect on hair follicle treated during the telogen stage (hair follicle [6]): induced to go on to the subsequent anagen stage
